According to patent US20070077238A1, “Production of organic and inorganic selenium compounds by lactic acid bacteria” (priority 2005, published 2007):

Test system: lactic acid bacteria strains
Experiment: Growth of lactic acid bacteria strains on media containing selenate or selenite
Assay type: cell-based, lactic acid bacteria from gastrointestinal tracts of chicken
Conditions: 250 ppm in media
Description: Putative strains of LAB were grown on MRS agar plates containing various concentrations of selenate and selenite.

O=[Se](=O)([O-])[O-].[Na+].[Na+] [Selenate, sodium selenate]
Number of lactic acid bacteria strains grown (percentage of bacterial cells that grew) (incubation time 12 h): 75.3 percentage
Number of lactic acid bacteria strains grown (percentage of bacterial cells that grew) (incubation time 24 h): 14.4 percentage
Number of lactic acid bacteria strains grown (percentage of bacterial cells that grew) (incubation time 48 h): 10.3 percentage
Number of lactic acid bacteria strains grown (percentage of bacterial cells that grew) (incubation time >48 h): 0 percentage

O=[Se](O)O [Selenite, sodium selenite]
Number of lactic acid bacteria strains grown (percentage of bacterial cells that grew) (incubation time 12 h): 62.9 percentage
Number of lactic acid bacteria strains grown (percentage of bacterial cells that grew) (incubation time 24 h): 2.1 percentage
Number of lactic acid bacteria strains grown (percentage of bacterial cells that grew) (incubation time 48 h): 24.7 percentage
Number of lactic acid bacteria strains grown (percentage of bacterial cells that grew) (incubation time >48 h): 10.3 percentage
